Columns and labels:
[1] = system: Carrageenin-induced edema in the paw; assay: Anti-inflammatory activity, Carrageenin-induced edema in the paw (Winter, Risley and Nuss); type: in vivo, Sprague Dawley rats; conditions: rats, ± e.s.
[2] = system: acute chemical visceral pain model; assay: Analgesic activity, abdominal contraction test with acetic acid (Writhing Test); type: in vivo, Swiss rats; conditions: inhibition of number of contractions vs control animals
Method: Adult male Swiss rats were used in the assay, 28-30 g in weight, 10 animals per treatment group or for each assessed dose level. 1-The analgesic activity/action was assessed by using an acute chemical visceral pain model, the abdominal contraction test with acetic acid (Writhing Test) (Miranda, H; Puig, […]. Synergism between paracetamol and nonsteroidal anti-inflammatory drugs in experimental acute pain. Pain (12) 2006. 22-28) ([…]. The Type of Analgesic-Receptor interaction involved in certain analgesic assays. European Journal of Pharmacology 16 (1971) 63-66. North Holland Publishing Company) […] The antinociceptive activity was expressed as the inhibition percentage of the number of contractions observed in the animals in the groups treated at each of the assessed dose levels, with respect to the number of contractions in the study control animals.

gastric mucus = assay: Gastric tolerance, Pisanti-Volterra method; type: in vivo, Sprague Dawley rats; conditions: rats, score 0 (normal stomach) to 6 (perforated ulcer)
Excerpt: The following scores were attributed according to the type and intensity of the injury observed: • Score 0=Normal stomach without injury; 1=Haemorrhaging points; 2=Haemorrhaging diffusion (reddening of the surface); 3=1-5 small ulcers (<3 mm); 4=Large number of small ulcers or a deep isolated ulceration; 5=Many ulcers of various size; 6=Perforated ulcer. • The degree of gastric injury is defined by the average score; the higher score corresponds to a greater gastric injury

[3] = Degradation / related substances (USP analytical method); type: physicochemical; conditions: reaction mixture up to 60° C. and gelation, finished microcapsules
Excerpt: No related substances derived from the degradation of diclofenac mentioned in USP were detected in HPSC.
Only 2% were found above 1000, and only 1% under 250 micron.

degradation / related substances [3] | Structure (SMILES) | % Inflammation inhibition 1st hour ([1]; Dose: 12.5 mg/kg) [%] | % Inflammation inhibition 2nd hour ([1]; Dose: 12.5 mg/kg) [%] | % Inflammation inhibition 3rd hour ([1]; Dose: 12.5 mg/kg) [%] | % Inflammation inhibition 4th hour ([1]; Dose: 12.5 mg/kg) [%] | % Inflammation inhibition 5th hour ([1]; Dose: 12.5 mg/kg) [%] | % Inflammation inhibition 2nd hour ([1]; Dose: 25.0 mg/kg) [%] | % Inflammation inhibition 3rd hour ([1]; Dose: 25.0 mg/kg) [%] | % Inflammation inhibition 4th hour ([1]; Dose: 25.0 mg/kg) [%] | % Inflammation inhibition 5th hour ([1]; Dose: 25.0 mg/kg) [%] | % Inflammation inhibition 2nd hour ([1]; Dose: 50.0 mg/kg) [%] | % Inflammation inhibition 3rd hour ([1]; Dose: 50.0 mg/kg) [%] | % Inflammation inhibition 4th hour ([1]; Dose: 50.0 mg/kg) [%] | % Inflammation inhibition 5th hour ([1]; Dose: 50.0 mg/kg) [%] | Analgesic Activity (% Inhibition) Avg. Score ± e.s. ([2]; Dose: 12.5 mg/kg) [%] | Analgesic Activity (% Inhibition) Avg. Score ± e.s. ([2]; Dose: 25.0 mg/kg) [%] | Degree of Gastric Injury Avg. score ± e.s. (gastric mucus; Dose: 12.5 mg/kg) | Degree of Gastric Injury Avg. score ± e.s. (gastric mucus; Dose: 25.0 mg/kg) | Degree of Gastric Injury Avg Score ± e.s. (gastric mucus; Dose: 50.0 mg/kg)
 | O=C(O)Cc1ccccc1Nc1c(Cl)cccc1Cl [diclofenac potassium] | 37.2 ± 12.2 | 42.5 ± 13.1 | 28.3 ± 9.5 | 30.6 ± 9.8 | 29.7 ± 10.8 | 36.4 ± 8.49 | 28.0 ± 13.56 | 23.3 ± 6.66 | 15.7 ± 5.61 | 45.8 ± 8.3 | 41.4 ± 6.9 | 47.2 ± 5.2 | 43.2 ± 4.5 | 53.23 ± 5.53 | 67.26 ± 4.62 | 2.64 ± 0.59 | 3.81 ± 0.35 | 4.80 ± 0.50
not degraded | O=C(O)Cc1ccccc1Nc1c(Cl)cccc1Cl [diclofenac, 2-((2,6 dichlorophenyl)amino)phenyl acetic (diclofenac) acid] |  |  |  |  |  |  |  |  |  |  |  |  |  |  |  |  |  | 
